Reference: paper PMC11033320, “Activation of p53 signaling and regression of breast and prostate carcinoma cells by spirooxindole-benzimidazole small molecules” (Frontiers in Pharmacology, 2024)

Tests used:
[1] = system: PC-3 cells; assay: MTT assay anticancer activity, PC-3; format: cell-based; details: Homo sapiens, PC-3, 5 µM, mean ± SEM, read-out: growth inhibition percentage of PC-3
Excerpt: MTT method was done as described above.

[2] = system: EKVX; assay: NCI anticancer screening, Non-Small Cell Lung Cancer EKVX; format: cell-based; details: Homo sapiens, read-out: % Growth Inhibition (GI %)
Excerpt: (§1) The compound has been processed according to standard method NCI-60 Human Tumor Cell Lines Screen for organic compound at development therapeutic program (DTP). Requests for access to this national resource can be submitted online at: […]

[3] = system: TK-10; assay: NCI anticancer screening, Renal Cancer TK-10; format: cell-based; details: Homo sapiens; TK-10, 10 μM; read-out: % Growth Inhibition (GI %)
Excerpt: as §1

[4] = system: SF-268; assay: NCI anticancer screening, CNS Cancer SF-268; format: cell-based; details: Homo sapiens; SF-268, 10 μM; read-out: % Growth Inhibition (GI %)
Excerpt: as §1

[5] = system: HL-60(TB); assay: NCI anticancer screening, Leukemia HL-60(TB); format: cell-based; details: Homo sapiens, read-out: % Growth Inhibition (GI %)
Excerpt: as §1

[6] = system: HOP-62; assay: NCI anticancer screening, Non-Small Cell Lung Cancer HOP-62; format: cell-based; details: Homo sapiens; HOP-62, 10 μM; read-out: % Growth Inhibition (GI %)
Excerpt: as §1

[7] = system: NCI/ADR-RES; assay: NCI anticancer screening, Ovarian Cancer NCI/ADR-RES; format: cell-based; details: Homo sapiens, read-out: % Growth Inhibition (GI %)
Excerpt: as §1

[8] = system: MDA-MB 231 cells; details: for inhibition: 5 µM
Method: Anticancer effect of the above-mentioned compounds was assayed using three human cancer cell lines. Triple negative breast cancer cell line (MDA-MB 231) and prostate cancer cell line (PC3) were cultured in DMEM (Lonza, USA) supplemented with 10% FBS. All cancer cells (4x10^3 cells/well) were seeded in sterile 96-well plates. After 24h, serial concentrations of the tested compounds were incubated with three cancer cell lines for 72 h at 37 °C in 5% CO2 incubator. […] The half maximal inhibitory concentration (IC50) values were calculated using the Graphpad Instat software.

[9] = system: MDA-MB-435; assay: NCI anticancer screening, Melanoma MDA-MB-435; format: cell-based; details: Homo sapiens; MDA-MB-435, 10 μM; read-out: % Growth Inhibition (GI %)
Excerpt: as §1

[10] = system: RXF 393; assay: NCI anticancer screening, Renal Cancer RXF 393; format: cell-based; details: Homo sapiens; RXF 393, 10 μM; read-out: % Growth Inhibition (GI %)
Excerpt: as §1

[11] = system: DU-145; assay: NCI anticancer screening, DU-145; format: cell-based; details: Homo sapiens; DU-145, 10 μM; read-out: % Growth Inhibition (GI %)
Excerpt: as §1

[12] = system: SF-295; assay: NCI anticancer screening, CNS Cancer SF-295; format: cell-based; details: Homo sapiens; SF-295, 10 μM; read-out: % Growth Inhibition (GI %)
Excerpt: as §1

[13] = system: HCT-116; assay: NCI anticancer screening, Colon Cancer HCT-116; format: cell-based; details: Homo sapiens; HCT-116, 10 μM; read-out: % Growth Inhibition (GI %)
Excerpt: as §1

[14] = system: OVCAR-8; assay: NCI anticancer screening, Ovarian Cancer OVCAR-8; format: cell-based; details: Homo sapiens; OVCAR-8, 10 μM; read-out: % Growth Inhibition (GI %)
Excerpt: as §1

[15] = system: NCI-H226; assay: NCI anticancer screening, Non-Small Cell Lung Cancer NCI-H226; format: cell-based; details: Homo sapiens; NCI-H226, 10 μM; read-out: % Growth Inhibition (GI %)
Excerpt: as §1

[16] = system: U251; assay: NCI anticancer screening, CNS Cancer U251; format: cell-based; details: Homo sapiens, U-251; U251, 10 μM; read-out: % Growth Inhibition (GI %)
Excerpt: as §1

[17] = system: SK-MEL-5; assay: NCI anticancer screening, Melanoma SK-MEL-5; format: cell-based; details: Homo sapiens; SK-MEL-5, 10 μM; read-out: % Growth Inhibition (GI %)
Excerpt: as §1

[18] = system: CCRF-CEM; assay: NCI anticancer screening, Leukemia CCRF-CEM; format: cell-based; details: Homo sapiens, read-out: % Growth Inhibition (GI %)
Excerpt: as §1

[19] = system: SW-620; assay: NCI anticancer screening, Colon Cancer SW-620; format: cell-based; details: Homo sapiens; SW-620, 10 μM; read-out: % Growth Inhibition (GI %)
Excerpt: as §1

[20] = system: KM12; assay: NCI anticancer screening, Colon Cancer KM12; format: cell-based; details: Homo sapiens; KM12, 10 μM; read-out: % Growth Inhibition (GI %)
Excerpt: as §1

[21] = system: SNB-75; assay: NCI anticancer screening, CNS Cancer SNB-75; format: cell-based; details: Homo sapiens; SNB-75, 10 μM; read-out: % Growth Inhibition (GI %)
Excerpt: as §1

[22] = system: HOP-92; assay: NCI anticancer screening, Non-Small Cell Lung Cancer HOP-92; format: cell-based; details: Homo sapiens; HOP-92, 10 μM; read-out: % Growth Inhibition (GI %)
Excerpt: as §1

[23] = system: 786-0; assay: NCI anticancer screening, Renal Cancer 786-0; format: cell-based; details: Homo sapiens; 786-0, 10 μM; read-out: % Growth Inhibition (GI %)
Excerpt: as §1

[24] = system: SNB-19; assay: NCI anticancer screening, CNS Cancer SNB-19; format: cell-based; details: Homo sapiens; SNB-19, 10 μM; read-out: % Growth Inhibition (GI %)
Excerpt: as §1

[25] = system: SN12C; assay: NCI anticancer screening, Renal Cancer SN12C; format: cell-based; details: Homo sapiens, read-out: % Growth Inhibition (GI %)
Excerpt: as §1

Compound | inhibition at 5 µM [1] | inhibition at 10 µM [2] | inhibition at 10 µM [3] | inhibition at 10 µM [4] | inhibition at 10 µM [5] | inhibition at 10 µM [6] | inhibition at 10 µM [7] | IC50 [8] | inhibition [8] | inhibition at 10 µM [9] | inhibition at 10 µM [10] | inhibition at 10 µM [11] | inhibition at 10 µM [12] | inhibition at 10 µM [13] | inhibition at 10 µM [14] | inhibition at 10 µM [15] | inhibition at 10 µM [16] | inhibition at 10 µM [17] | inhibition at 10 µM [18] | inhibition at 10 µM [19] | further results
O=C(c1nc2ccccc2[nH]1)[C@H]1[C@H](c2ccc(C(F)(F)F)cc2)C2CSCN2[C@]12C(=O)Nc1ccccc12 (stereo partly drawn) [Compound 6c, (3S,6′R)-6'-(1H-Benzo [d]imidazole-2-carbonyl)-7'-(4-(trifluoromethyl)phenyl)-3′,6′,7′,7a′-tetrahydro-1′H-spiro [indoline-3.5′-pyrrolo [1,2-c]thiazol]-2-one] | 54.1 ± 1.35% | 87% | 120% | 90.2% | 108% | 89.5% | 86% | 3.34 ± 0.21 µM | 55.5 ± 2.5% | 88.3% | 90.1% | 97% | 95.3% | 60% | 98.8% | 79% | 93.2% | 94.2% | 95% | 84.1% | inhibition at 10 µM [20]: 71.8%; inhibition at 10 µM [21]: 72.9%; inhibition at 10 µM [22]: 109%; inhibition at 10 µM [23]: 99.4%; inhibition at 10 µM [24]: 84.9%; inhibition at 10 µM [25]: 90.7%
O=C(c1nc2ccccc2[nH]1)[C@H]1[C@H](c2cccc(F)c2)C2CSCN2[C@]12C(=O)Nc1ccccc12 (stereo partly drawn) [Compound 6m, (3S,6′R)-6'-(1H-Benzo [d]imidazole-2-carbonyl)-7'-(3-fluorophenyl)-3′,6′,7′,7a′-tetrahydro-1′H-spiro [indoline-3.5′-pyrrolo [1,2-c]thiazol]-2-one] | 60.1 ± 0.521% | 88.2% | 116% | 88.6% | 98.4% | 97.9% | 95.9% | 4.73 ± 0.224 µM | 62.8 ± 3.91% | 96.5% | 85.2% | 105% | 96.1% | 84.4% | 94.9% | 92.6% | 106% | 88.8% | 112% | 89.1% | inhibition at 10 µM [20]: 98.1%; inhibition at 10 µM [21]: 77.7%; inhibition at 10 µM [22]: 99.7%; inhibition at 10 µM [23]: 100%; inhibition at 10 µM [24]: 91.9%; inhibition at 10 µM [25]: 96.1%
O=C(c1nc2ccccc2[nH]1)[C@H]1[C@H](c2ccco2)C2CSCN2[C@]12C(=O)Nc1ccccc12 (stereo partly drawn) [Compound 6n, (3S,6′R)-6'-(1H-Benzo [d]imidazole-2-carbonyl)-7'-(furan-2-yl)-3′,6′,7′,7a′-tetrahydro-1′H-spiro [indoline-3.5′-pyrrolo [1,2-c]thiazol]-2-one] | 52.5 ± 1.46% | 103% | 133% | 102% | 98.4% | 99.8% | 101% | 6.14 ± 0.246 µM | 52.9 ± 2.5% | 105% | 104% | 114% | 109% | 98.6% | 101% | 92.2% | 109% | 98.2% | 110% | 95.6% | inhibition at 10 µM [20]: 102%; inhibition at 10 µM [21]: 96%; inhibition at 10 µM [22]: 113%; inhibition at 10 µM [23]: 104%; inhibition at 10 µM [24]: 96.8%; inhibition at 10 µM [25]: 92.5%
